Experimental data from PubChem BioAssay (NCI).
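1) Cells in 96-well plates. 2) Compound, 48 h, 5 concentrations. 3) Linear interpolation between surrounding doses. 4) Unreached endpoint = highest concentration. Definition used: TGI = concentration required for complete inhibition of growth.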

Legend:
Test in all cases: inhibition of tumour cell growth, NCI panel, 48 h
[1] = test system: 786-0 renal
[2] = test system: A498 renal
[3] = test system: A549 NSCLC
[4] = test system: ACHN renal
[5] = test system: BT-549 breast
[6] = test system: CAKI-1 renal
[7] = test system: CCRF-CEM leukemia
[8] = test system: COLO 205 colon
[9] = test system: DU-145 prostate
[10] = test system: EKVX NSCLC
[11] = test system: HCC-2998 colon
[12] = test system: HCT-116 colon
[13] = test system: HCT-15 colon
[14] = test system: HOP-62 NSCLC
[15] = test system: HOP-92 NSCLC
[16] = test system: HS 578T breast
[17] = test system: HT29 colon
[18] = test system: IGROV1 ovarian
[19] = test system: KM12 colon
[20] = test system: LOX IMVI melanoma
[21] = test system: M14 melanoma
[22] = test system: MALME-3M melanoma
[23] = test system: MCF7 breast
[24] = test system: MDA-MB-231 breast
[25] = test system: MDA-MB-435
[26] = test system: MDA-N
[27] = test system: NCI-H226 lung
[28] = test system: NCI-H23 lung
[29] = test system: NCI-H460 lung
[30] = test system: NCI-H522 lung
[31] = test system: NCI/ADR-RES ovarian
[32] = test system: OVCAR-3 ovarian
[33] = test system: OVCAR-4 ovarian
[34] = test system: OVCAR-5 ovarian
[35] = test system: OVCAR-8 ovarian
[36] = test system: PC-3 prostate
[37] = test system: RPMI-8226 leukemia
[38] = test system: RXF 393 renal
[39] = test system: SF-268 CNS
[40] = test system: SF-295 CNS
[41] = test system: SF-539 CNS
[42] = test system: SK-MEL-2 melanoma
[43] = test system: SK-MEL-28 melanoma
[44] = test system: SK-MEL-5 melanoma
[45] = test system: SK-OV-3 ovarian
[46] = test system: SN12C renal
[47] = test system: SNB-19 CNS
[48] = test system: SNB-75 CNS
[49] = test system: SR leukemia
[50] = test system: SW-620 colon
[51] = test system: T-47D breast
[52] = test system: TK-10 renal
[53] = test system: U251 CNS
[54] = test system: UACC-257 melanoma
[55] = test system: UACC-62 melanoma
[56] = test system: UO-31 renal
[57] = test system: HL-60(TB) leukemia
[58] = test system: K-562 leukemia
[59] = test system: MOLT-4 leukemia

## NC(=O)c1csc(C2(O)COC(CO)C2O)n1 (configuration not stated)
[1]
  TGI: > 100 µM
[2]
  TGI: > 100 µM
[3]
  TGI: > 100 µM
[4]
  TGI: > 100 µM
[5]
  TGI: > 100 µM
[6]
  TGI: > 100 µM
[7]
  TGI: > 100 µM
[8]
  TGI: > 100 µM
[9]
  TGI: > 100 µM
[10]
  TGI: > 100 µM
[11]
  TGI: > 100 µM
[12]
  TGI: > 100 µM
[13]
  TGI: > 100 µM
[14]
  TGI: > 100 µM
[15]
  TGI: > 100 µM
[16]
  TGI: > 100 µM
[17]
  TGI: > 100 µM
[18]
  TGI: > 100 µM
[19]
  TGI: > 100 µM
[20]
  TGI: > 100 µM
[21]
  TGI: > 100 µM
[22]
  TGI: > 100 µM
[23]
  TGI: > 100 µM
[24]
  TGI: > 100 µM
[25]
  TGI: > 100 µM
[26]
  TGI: > 100 µM
[27]
  TGI: > 100 µM
[28]
  TGI: > 100 µM
[29]
  TGI: > 100 µM
[30]
  TGI: > 100 µM
[31]
  TGI: > 100 µM
[32]
  TGI: > 100 µM
[33]
  TGI: > 100 µM
[34]
  TGI: > 100 µM
[35]
  TGI: > 100 µM
[36]
  TGI: > 100 µM
[37]
  TGI: > 100 µM
[38]
  TGI: > 100 µM
[39]
  TGI: > 100 µM
[40]
  TGI: > 100 µM
[41]
  TGI: > 100 µM
[42]
  TGI: > 100 µM
[43]
  TGI: > 100 µM
[44]
  TGI: > 100 µM
[45]
  TGI: > 100 µM
[46]
  TGI: > 100 µM
[47]
  TGI: > 100 µM
[48]
  TGI: > 100 µM
[49]
  TGI: > 100 µM
[50]
  TGI: > 100 µM
[51]
  TGI: > 100 µM
[52]
  TGI: > 100 µM
[53]
  TGI: > 100 µM
[54]
  TGI: > 100 µM
[55]
  TGI: > 100 µM
[56]
  TGI: > 100 µM

## O=C1N=C2SC(=S)NC(=S)N2NC12c1ccccc1-c1ccccc12
[1]
  TGI: > 10 µM
[2]
  TGI: 6.58 µM
[3]
  TGI: > 10 µM
[5]
  TGI: > 10 µM
[6]
  TGI: > 10 µM
[7]
  TGI: > 10 µM
[8]
  TGI: > 10 µM
[9]
  TGI: > 10 µM
[10]
  TGI: > 10 µM
[11]
  TGI: > 10 µM
[13]
  TGI: > 10 µM
[57]
  TGI: > 10 µM
[14]
  TGI: > 10 µM
[15]
  TGI: > 10 µM
[16]
  TGI: > 10 µM
[17]
  TGI: > 10 µM
[18]
  TGI: > 10 µM
[58]
  TGI: > 10 µM
[19]
  TGI: > 10 µM
[20]
  TGI: > 10 µM
[21]
  TGI: > 10 µM
[22]
  TGI: > 10 µM
[23]
  TGI: > 10 µM
[24]
  TGI: > 10 µM
[26]
  TGI: > 10 µM
[59]
  TGI: > 10 µM
[28]
  TGI: > 10 µM
[29]
  TGI: > 10 µM
[31]
  TGI: > 10 µM
[33]
  TGI: > 10 µM
[35]
  TGI: > 10 µM
[37]
  TGI: > 10 µM
[39]
  TGI: > 10 µM
[41]
  TGI: > 10 µM
[44]
  TGI: > 10 µM
[45]
  TGI: > 10 µM
[46]
  TGI: > 10 µM
[48]
  TGI: > 10 µM
[49]
  TGI: > 10 µM
[50]
  TGI: > 10 µM
[51]
  TGI: > 10 µM
[52]
  TGI: > 10 µM
[53]
  TGI: > 10 µM
[54]
  TGI: > 10 µM
[55]
  TGI: > 10 µM
[56]
  TGI: > 10 µM
